{"source": "BindingDB's records for patent US11111270", "about": "(Sanford Burnham Prebys Medical Discovery Institute, 2021)", "target": "T1, E3 ubiquitin-protein ligase XIAP [163-230]/[26-93] (Homo sapiens, UniProt P98170+P98170)", "T1 construct": "163-230; 26-93", "T1 sequence (P98170 26-93)": "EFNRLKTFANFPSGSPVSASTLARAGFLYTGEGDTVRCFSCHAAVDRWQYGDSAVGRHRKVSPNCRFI", "T1 sequence (P98170 163-230)": "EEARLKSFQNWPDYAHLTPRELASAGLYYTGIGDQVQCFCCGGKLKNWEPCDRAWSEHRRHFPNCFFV", "assay": "Biological Assay", "experimental": "5000 PPC-1 cells were plated and grown overnight. Compounds were plated and 4 hrs later, TRAIL was added to half of the plate while RPMI was added to the other half of the plate as a control. Plates were return to the incubator for 24 hrs. Plates were removed from the incubator and placed on the bench for 30 min and then 25 uL of Cell Titer Glo were added per well. Plates were placed on a rocker and then read on a luminometer. 5000 MDA-MB-231 cells were plated per well. Compound was added and 4 hrs later, TRAIL was added at 5 ng/mL; RPMI was added for a minus TRAIL control. Plates were incubated an additional 24 hrs, removed to the bench for 30 min, and then 25 uL of cell titer glo was added per well. Plates were placed on a rocker and read on a luminometer. Data were fit using PRISM."}
{"smiles": "CN[C@@H](C)C(=O)N[C@H]1CCCNC2CCC(C(=O)N[C@@H]3CCCc4ccccc43)N2C1=O", "note": "(stereo partly specified) [US11111270, Compound 16]", "values": [{"measurement": "Ki", "value": "in the range around 37.5 µM"}]}
